According to patent publication US20030176651A1, “Multiprotein-complex comprising a nmda receptor and uses thereof” (priority 2000, published 2003):
Entries after “also recorded” stand apart in the source; their conditions may differ. Read-outs that look alike come from different tables or passages of the source.

How the values were obtained:
[1] = tested on: mice with chronic constriction injury (CCI) to the sciatic nerve / naive mice; experiment: Mechanical allodynia (von Frey filaments, paw withdrawal threshold) after intrathecal drug treatment; type: in vivo, mouse; conditions: for reversal of mechanical allodynia ipsilateral to CCI: wild type mice, intrathecal in 10 μl, (R)-CPP 100 ρmol, peptide 1 n mole, K-93/KN-92 120 pmol
Experimental: (§1) Animals were initially anaesthetised with sodium pentobarbital (Sagatal; 0.01 ml/kg (1:4 in saline, i.p.; Rhône Mérieux, UK) and this was then supplemented with halothane O2 (Zeneca, UK). Under aseptic conditions, using a variation of the method of Bennett and Xie for rat [G. J. Bennett and Y. K. Xie, Pain 33, 87 (1988)], the sciatic nerve was exposed at the mid-thigh level proximal to the sciatic trifurcation. Three chromic catgut ligatures (5.0; Ethicon, Edinburgh) separated by 1 mm were tied loosely to constrict the […] as viewed under 40× magnification. Vascular supply was not compromised. The overlying muscle and skin were sutured and the animals were placed in a recovery cage.
(§2) Animals were tested for 6 days prior to surgery in order to establish stable baseline levels for each test and then every one or two days post-operatively (PO). The responses were compared to the average of the pre-surgery values and the contralateral control. The animals were examined daily to ensure that no autotomy was present.
Mechanical allodynia was measured as the withdrawal threshold to calibrated Semmes-Weinstein von Frey filaments (Stoelting, Wood Dale, Ill.) with a bending force of 0.22-84.96 g. The mice were placed in a small rectangular cage. The filaments were applied to the mid-plantar surface of the hindpaw from beneath until the filament started to bend. This stimulus was repeated 8-10 times at 1-2 sec intervals for both the injured and uninjured hindpaws. The mean threshold required to elicit a withdrawal response was recorded. The filaments were applied in ascending order, and a response was characterised as a brief paw flick. The withdrawal threshold was defined from the lower of two consecutive von Frey filaments that elicited a response. Data were expressed as the threshold indentation pressure (i.e. the bending force/the cross-sectional area at the tip of the filament). Mean basal values for pre-operative paw withdrawal threshold were typically around 600 mN.mm^−2.
(§3) Baseline measurements were recorded for thermal hyperalgesia (Hargreaves' test) and mechanical allodynia (von Frey filament test) in mice which had undergone the chronic constriction injury and were at the peak of neuropathy. Mice were anaesthetised with halothane and O2. Drugs were injected intrathecally, in 10 μl saline, at the L4 level of the spinal cord using a 25 μl microsyringe [J. L. Hylden and G. L. Wilcox, Eur. J. Pharmacol., 67, 313 (1980)]. The experimenter was blind to the content of the injections so as to eliminate bias, and dye injections (Pontamine Sky Blue) were performed to determine the site of injection. 15 minutes following injection, mice were re-tested using the same procedures and measurements were taken to determine the effects of drug on hyperalgesia and allodynia. Animals were tested every 5 minutes until readings returned to baseline levels.

[2] = tested on: mice with chronic constriction injury (CCI) to the sciatic nerve / naive mice; experiment: Thermal hyperalgesia (Hargreaves, paw withdrawal latency) after intrathecal drug treatment; type: in vivo, mouse; conditions: for reversal of thermal hyperalgesia ipsilateral to CCI: wild type mice, intrathecal in 10 μl, (R)-CPP 100 ρmol, peptide 1 n mole, K-93/KN-92 120 pmol
Experimental: as §1, §2
Thermal hyperalgesia was monitored using Hargreaves' Thermal Stimulator (Linton Instruments, USA). The stimulus was applied to the mid-plantar surface of the hind paw. The withdrawal response was characterised as a brief paw flick. The latency of withdrawal was recorded for the ipsilateral (injured) and the contralateral hindpaws. The means of between 5 and 10 readings were recorded at 3-5 min intervals to ensure no hypersensitivity to the test was established. Mean basal values for pre-operative paw withdrawal latency were typically around 5 sec.
as §3

CaM kinase II = experiment: Ex vivo CaM kinase II activity assay after topical application to dorsal spinal cord; type: in vivo, mouse; conditions: for activation of constitutive CaM kinase II activity, wild type versus PSD-95 mutant: naive mice, topical 15 min, NMDA 500 μM with glycine 100 μM, ionomycin 10 μM
Experimental: Following lumbar L3-6 laminectomy under anaesthesia, mice, which in some cases had previously received chronic constriction injury, were treated by topical application of agents to the dorsal surface of the spinal cord. […] Constitutive (autophosphorylated) and Ca^2+/CM-elicited activity of CaM II kinase [P. I. Hanson et al., Neuron 3, 59 (1989); P. M. Jones and S. J. Persaud, Am. J. Physiol. 274, E708 (1998)] were measured by the following procedure. Samples were rapidly homogenised on ice in 20 mM Na HEPES pH 7.5 with 5% glycerol, 1 mM EGTA, 1 mM dithiothreitol, 1 mM AEBSF, 2 μg.ml^−1 aprotinin, 10 μg.ml^−1 leupeptin, 2 μg.ml^−1 pepstatin, 50 μg.ml^−1 soybean trypsin inhibitor, 25 mM Na β-glycerophosphate, 1 mM Na orthovanadate, 1 mM Na F, 1 μM calyculin A, 1 μM cypermethrin. Following a 30 min incubation on ice with 0.25% CHAPS and clarification, samples were incubated at 4° C. for 2 hours with 3 μg.ml^−1 mouse anti-α-CaM kinase II IgG (clone CBα-2; Zymed) and then with excess Protein G-Sepharose for 1 hour. Aliquots of washed immunoprecipitate were incubated for 20 min at 30° C. (linear range of assay) with 50 μM autocamtide-2, 50 μM ATP (with [^33P] γ-ATP to 0.25 μCi/tube), 10 mM MgCl2 and 8 μg.ml^−1 purified bovine calmodulin (Sigma), in the presence of 0.5 μM PKC-α19-31 and 0.5 μM PKI6-22 amide (to suppress any PKC and PKA-mediated activity respectively) before termination with cold TCA (to 10%), centrifugation and spotting of the supernatant onto P81 phospho-cellulose paper.
Samples were washed extensively in 75 mM H3PO4 and dried before scintillation counting. Constitutive and maximal Ca^2+-evoked activity were measured in the absence and presence of 2 mM CaCl2 respectively. Zero time and substrate-free blanks were less than 2% of maximal activity. Parallel immunoblotting experiments were attempted with phospho-specific antisera for Thr^286-CaM kinase II (the key autophosphorylation site), but gave insufficient signal:noise ratios for further use.

NMDA receptors = conditions: rats, cited from earlier work
[3] = biological target: multi-protein complex comprising NMDA receptor (NR1, NR2B, PSD-95) (Mus musculus, UniProt P35438+Q01097); experiment: Ligand affinity chromatography of mouse brain DOC extracts (SDS-PAGE, Western blotting); type: binding
[4] = tested on: hippocampal CA1 region slices (MEK inhibitor)
From the text: Low resistance glass microelectrodes filled with ACSF were placed into stratum radiatum of the hippocampal CA1 region to record field excitatory postsynaptic potentials (fEPSPs) evoked by presynaptic stimulation pulses delivered once every 50 seconds to the Schaffer collateral/commissural fibers via a bipolar nichrome wire stimulating electrode. At the beginning of each experiment the intensity of presynaptic fiber stimulation was adjusted to evoke fEPSPs that were approximately half of the maximal fEPSP amplitude that could be evoked by strong intensity stimulation. High-frequency stimulation-induced LTP was elicited using two trains of 100 Hz stimulation (1 sec. in duration) delivered with an inter-train interval of 10 seconds. To elicit saturating levels of LTP we delivered 6, one-second-long trains of 100 Hz stimulation with an inter-train interval of 5 minutes. For statistical comparisons (unpaired t-tests, two-tailed, N=number of animals) we compared the average amount of potentiation present 55 to 60 minutes after the first high-frequency stimulation train or 40 to 45 minutes after low-frequency trains of stimulation. […] Similar results were obtained with both internal solutions and the results were combined. […] All experiments and initial data analysis were performed blind except for experiments done on 3 H-Ras^−/− mutant mice. […] All values are reported as mean±SEM.

[5] = tested on: mouse brain proteins / multi-protein complex (PSD-95, NMDA receptor); experiment: Peptide affinity chromatography of mouse brain DOC extracts (SDS-PAGE); type: binding; conditions: 0.5 ml mouse brain DOC extract, Coomassie stained SDS-PAGE
Experimental: Peptides were solubilised and coupled to affigel-10 in methanol at 5 mg/ml resin for 3 days at 4° C. with constant agitation and residual active side chains were blocked with 0.5 M Tris pH8.8 for 1 day at 4° C. followed by transfer of the resin to PBS.
Initial small-scale experiments were done using 0.5 ml brain DOC extract and 25 μl affigel-10 immobilised peptides. The resins were washed four times with 0.5 ml cold DOC buffer after an incubation period of four hours at 4° C. with constant agitation followed by SDS-PAGE analysis. Large scale samples were prepared by adding 0.5 ml NR2B 1477-1482 peptide derivatised affigel-10 with 50 ml DOC extract followed by an incubation overnight at 4° C. with constant agitation. The resin was then transferred into a chromatography column and washed to baseline with approximately 100 ml cold DOC buffer. Bound proteins were released from the resin by boiling for 30 minutes in 4% SDS-containing buffer and 20 μl aliquots were subsequently used for SDS-PAGE analysis and Western blotting (see Example 2).

[6] = CCI wild type mice, intrathecal
[7] = ligand coupled to PharmaLink resin
[8] = naive PSD-95 mutant mice, intrathecal NMDA
[9] = naive wild type mice, intrathecal NMDA 0.25 nmol in 10μl

O=C(O)[C@H]1CN(CCCP(=O)(O)O)CCN1 [(R)-CPP]
effect on contralateral responses (mechanical) [1, 6]: In no case was there any significant effect
effect on paw withdrawal threshold in PSD-95 mutants ([1]; PSD-95 mutant mice with CCI, intrathecal): unaffected
effect in naive or sham-operated mice ([1]; naive or sham-operated wild type or PSD-95 mutant mice (data not shown)): had no effect
reversal of mechanical allodynia ipsilateral to CCI [1]: completely reversed
effect on contralateral responses (thermal) [2, 6]: no effect
effect on paw withdrawal latency in PSD-95 mutants ([2]; PSD-95 mutant mice with CCI, intrathecal 100 ρmol in 10 μl): had no effect; also recorded: unaffected
reversal of thermal hyperalgesia ipsilateral to CCI [2]: completely reversed
effect on elevated proportion of constitutive CaM kinase II activity ipsilateral to CCI (CaM kinase II; wild type mice with CCI, topical application): entirely prevented

NC(CCCP(=O)(O)O)C(=O)O (stereo not drawn) [AP5]
effect on new learning (NMDA receptors; both types of task): severely impaired
effect on retention of a previously learned olfactory discrimination or watermaze task (NMDA receptors): no effect

NC(N)=NCCCCN=C(N)N [Arcaine]
proteins / multi-protein complex retained on immobilised ligand ([3]; ligand coupled to affigel-10): substantial amount of protein did interact with immobilised Arcaine, including NR1, NR2B and PSD-95

NC(CCCP(=O)(O)O)C(=O)O [D-AP5]
proteins / multi-protein complex retained on immobilised ligand [3, 7]: bound to an array of protein species
proteins / multi-protein complex retained on immobilised ligand ([3]; ligand coupled to affigel-10): ineffective in the isolation of any protein

COc1ccc2c(c1)[C@]13CCCC[C@@H]1[C@H](C2)N(C)CC3 [Dextromethorphan]
proteins / multi-protein complex retained on immobilised ligand [3]: only marginal amounts of both NR1 and NR2B were present, but surprisingly a comparatively large amount of PSD-95

NC1CCN(O)C1=O (stereo not drawn) [HA-966, 3-amino-1-hydroxy-2-pyrrolidone]
proteins / multi-protein complex retained on immobilised ligand [3, 7]: found positive for NMDA receptor channel components and the attached PSD-95
proteins / multi-protein complex retained on immobilised ligand ([3]; ligand coupled to affigel-10): found positive for NMDA receptor channel components and the attached PSD-95

CC(C(O)c1ccc(O)cc1)N1CCC(Cc2ccccc2)CC1 (stereo not drawn) [Ifenprodil]
proteins / multi-protein complex retained on immobilised ligand [3]: capable of binding the multi-protein complex and many other molecules, though to a slightly lower degree than the Arcaine resin

COc1ccc(S(=O)(=O)Nc2ccccc2CN(C)C/C=C/c2ccc(Cl)cc2)cc1 [KN92]
reversal of thermal hyperalgesia ipsilateral to CCI [2]: to a smaller extent

COc1ccc(S(=O)(=O)N(CCO)c2ccccc2CN(C)C/C=C/c2ccc(Cl)cc2)cc1 [KN93]
reversal of mechanical allodynia ipsilateral to CCI [1]: reversal
reversal of thermal hyperalgesia ipsilateral to CCI [2]: reversal

NC(=O)C[C@H](N)C(=O)O [L-Asparagine]
proteins / multi-protein complex retained on immobilised ligand ([3]; ligand coupled to affigel-10): bound to an array of protein species

CN[C@H](CC(=O)O)C(=O)O [NMDA, N-methyl-D-aspartate]
effect on mechanical behavioural responses in PSD-95 mutants [1, 8]: unaffected
induction of mechanical allodynia-like behavioural change [1, 9]: bilaterally mimicked
effect on thermal behavioural responses in PSD-95 mutants [2, 8]: unaffected
induction of thermal hyperalgesia-like behavioural change [2, 9]: bilaterally mimicked
activation of constitutive CaM kinase II activity, wild type versus PSD-95 mutant (CaM kinase II): equivalent
proteins / multi-protein complex retained on immobilised ligand [3]: only marginal quantities of the multi-protein complex were retained

N#CC(=C(/N)Sc1ccccc1N)/C(C#N)=C(\N)Sc1ccccc1N [U0126]
fEPSPs after 5 Hz stimulation ([4]; slices from PSD-95 mutant mice continuously exposed to U0126, N=14 slices): 270±12 % of baseline
effect on induction of LTP by a brief train of 5 Hz stimulation ([4]; wild type slices, 20 μM): strongly suppressed the induction of LTP
fEPSPs after 5 Hz stimulation ([4]; wild type slices, continuously bathed in U0126 (20 *M) at least 60 min before 5 Hz stimulation, N=11 slices): 137±9 % of baseline

C[C@H](CCC(=O)O)C[C@H](C)C[C@H](C)C(=O)/C=C(\O)[C@H](C)C[C@H](C)C/C=C/[C@@H](C)[C@@H](O)[C@@H](C)[C@@H](O)C[C@@H]1CC[C@@](C)([C@H]2CC[C@@](C)([C@@H](C)O)O2)O1 [ionomycin]
activation of constitutive CaM kinase II activity, wild type versus PSD-95 mutant (CaM kinase II): equivalent

KLSSIESDV [NR2B (1474-1482), NR2B C-terminal peptide]
proteins bound by peptide covalently linked to affigel-10 [5]: did not show any binding pattern similar to the slightly shorter one

RRAIEREEGQLQLCSRHRES [NR1 C-terminal peptide, last 20 amino acids of NR1, 919-938]
proteins bound by peptide covalently linked to affigel-10 [5]: showed no evident binding pattern

SIESDV [NR2B (1477-1482)]
proteins bound by peptide covalently linked to affigel-10 [5]: revealed several bands at 75 and 100 kDa; also recorded: capable of not only purifying PSD-95 and other members of this family, but also the NMDA receptor itself

myristoyl-autocamtide 2-related inhibitory peptide
reversal of mechanical allodynia ipsilateral to CCI [1]: reversal
reversal of thermal hyperalgesia ipsilateral to CCI [2]: reversal
